Results as given in patent publication US20230212120A1, “SMALL MOLECULE INHIBITORS OF GRK5 AND GRK5 SUBFAMILY MEMBERS AND USES THEREOF” (The Regents of the University of Michigan, priority 2020, published 2023).
Several values for one entry are separate records, joined by “and”; a condition that tells them apart may be missing. Identical values can stand only once. Entries after “also recorded” stand apart in the source; their conditions may differ. Like-named read-outs stand apart in the source and are kept apart here.

Experiments:
GRK5 (Cys474) = GRK5 (Cys474) (Homo sapiens, UniProt P34947); experiment: Intact protein MS, covalent labelling of GRK5; type: binding
Sequence of GRK5 (Cys474) (P34947 whole entry): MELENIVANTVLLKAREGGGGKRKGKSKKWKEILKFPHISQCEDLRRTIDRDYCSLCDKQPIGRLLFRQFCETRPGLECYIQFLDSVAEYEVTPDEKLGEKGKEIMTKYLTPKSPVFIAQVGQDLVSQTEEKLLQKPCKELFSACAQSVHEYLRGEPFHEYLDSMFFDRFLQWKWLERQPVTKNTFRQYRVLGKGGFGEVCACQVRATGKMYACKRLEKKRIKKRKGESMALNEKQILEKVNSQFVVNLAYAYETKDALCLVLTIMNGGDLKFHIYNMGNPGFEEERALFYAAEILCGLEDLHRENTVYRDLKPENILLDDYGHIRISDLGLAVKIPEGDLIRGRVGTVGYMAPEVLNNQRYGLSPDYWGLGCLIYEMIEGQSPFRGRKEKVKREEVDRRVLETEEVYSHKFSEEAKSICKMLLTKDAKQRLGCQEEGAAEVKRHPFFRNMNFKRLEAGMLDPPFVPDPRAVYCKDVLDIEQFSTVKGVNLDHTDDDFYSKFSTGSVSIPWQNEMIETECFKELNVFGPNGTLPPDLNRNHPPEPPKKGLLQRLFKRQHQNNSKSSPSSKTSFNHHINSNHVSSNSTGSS

PKA = PKA (Homo sapiens, UniProt P17612); experiment: PKA inhibition assay (ADP-Glo); type: biochemical
Description: The PKA inhibition assays were performed with the ADP-Glo system (Promega Corporation) according to the manufactory's instruction. […] After the initial reaction, ADP-Glo reagent was added to the reaction and allowed to incubate for an additional 40 min. Lastly, the kinase detection reagent was added and allowed to incubate for 30 min, and the luminescence was measured with a FlexStation 3 Multi-mode Microplate Reader (Molecular Devices). All data was analyzed in the same way as GRK inhibition assay. Experiments were performed three times in duplicate.
Standard control compounds are run during each assay to assess consistency across time, experimenters, and subtle changes in assay conditions that are sometimes required to keep some of the compounds soluble and disperse (such as through addition of DDM or 3% DMSO). Paroxetine were used as controls for GRK2 and PKA, and CCG215022 for GRK5.

GRK5 [1] = molecular target: T1, GRK5 (Homo sapiens, UniProt P34947); experiment: radiometric GRK5 inhibition assay (tubulin phosphorylation); conditions: for IC50: read-out: GRK5 IC50
Target sequence in this assay (P34947 whole entry): as above

[2] = Thermodynamic solubility (Analiza Inc.); type: physicochemical; conditions: Water
Text: Experimental data collected by Analiza Inc. Experimental values represent an average of n=1 experiments.

bovine GRK2 = molecular target: T2, bovine GRK2 (Bos taurus, UniProt P21146); experiment: radiometric GRK2 inhibition assay (tubulin phosphorylation)
T2 sequence (P21146 1-689): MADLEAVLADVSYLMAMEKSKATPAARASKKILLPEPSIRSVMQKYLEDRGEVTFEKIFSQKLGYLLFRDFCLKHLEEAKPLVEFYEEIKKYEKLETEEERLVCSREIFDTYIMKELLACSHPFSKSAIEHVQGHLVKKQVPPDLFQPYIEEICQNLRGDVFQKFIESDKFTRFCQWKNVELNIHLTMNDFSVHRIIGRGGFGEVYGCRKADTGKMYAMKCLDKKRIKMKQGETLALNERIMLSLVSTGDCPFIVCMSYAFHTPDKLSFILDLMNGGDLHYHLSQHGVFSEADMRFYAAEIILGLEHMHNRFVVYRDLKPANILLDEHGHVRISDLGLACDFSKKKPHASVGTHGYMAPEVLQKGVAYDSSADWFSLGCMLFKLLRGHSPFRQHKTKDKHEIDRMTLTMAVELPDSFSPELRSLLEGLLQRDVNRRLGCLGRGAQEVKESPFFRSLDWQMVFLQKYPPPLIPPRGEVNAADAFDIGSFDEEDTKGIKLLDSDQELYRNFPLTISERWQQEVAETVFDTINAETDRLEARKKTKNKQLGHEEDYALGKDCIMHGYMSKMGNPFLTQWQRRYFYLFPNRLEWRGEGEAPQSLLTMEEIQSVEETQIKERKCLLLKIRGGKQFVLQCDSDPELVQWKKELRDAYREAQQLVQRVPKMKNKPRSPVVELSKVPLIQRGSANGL

[3] = Metabolic stability in human liver microsomes; type: in vitro ADME; conditions: 4-fluoro pendant added to phenyl ring
kinome = experiment: Kinome-wide selectivity panel; type: biochemical; conditions: tested at 10 nM, in relation to 100 nM and 1 μM panels
FGFR1/2 = experiment: Kinome panel, FGFR1/2; type: biochemical; conditions: tested at 1 μM
PDGFR = experiment: Kinome panel, PDGFR; type: biochemical; conditions: tested at 1 μM
EGFR = EGFR (Homo sapiens, UniProt P00533); experiment: Kinome panel, EGFR; type: biochemical; conditions: tested at 1 μM
Sequence of EGFR (P00533 25-1210, species assumed): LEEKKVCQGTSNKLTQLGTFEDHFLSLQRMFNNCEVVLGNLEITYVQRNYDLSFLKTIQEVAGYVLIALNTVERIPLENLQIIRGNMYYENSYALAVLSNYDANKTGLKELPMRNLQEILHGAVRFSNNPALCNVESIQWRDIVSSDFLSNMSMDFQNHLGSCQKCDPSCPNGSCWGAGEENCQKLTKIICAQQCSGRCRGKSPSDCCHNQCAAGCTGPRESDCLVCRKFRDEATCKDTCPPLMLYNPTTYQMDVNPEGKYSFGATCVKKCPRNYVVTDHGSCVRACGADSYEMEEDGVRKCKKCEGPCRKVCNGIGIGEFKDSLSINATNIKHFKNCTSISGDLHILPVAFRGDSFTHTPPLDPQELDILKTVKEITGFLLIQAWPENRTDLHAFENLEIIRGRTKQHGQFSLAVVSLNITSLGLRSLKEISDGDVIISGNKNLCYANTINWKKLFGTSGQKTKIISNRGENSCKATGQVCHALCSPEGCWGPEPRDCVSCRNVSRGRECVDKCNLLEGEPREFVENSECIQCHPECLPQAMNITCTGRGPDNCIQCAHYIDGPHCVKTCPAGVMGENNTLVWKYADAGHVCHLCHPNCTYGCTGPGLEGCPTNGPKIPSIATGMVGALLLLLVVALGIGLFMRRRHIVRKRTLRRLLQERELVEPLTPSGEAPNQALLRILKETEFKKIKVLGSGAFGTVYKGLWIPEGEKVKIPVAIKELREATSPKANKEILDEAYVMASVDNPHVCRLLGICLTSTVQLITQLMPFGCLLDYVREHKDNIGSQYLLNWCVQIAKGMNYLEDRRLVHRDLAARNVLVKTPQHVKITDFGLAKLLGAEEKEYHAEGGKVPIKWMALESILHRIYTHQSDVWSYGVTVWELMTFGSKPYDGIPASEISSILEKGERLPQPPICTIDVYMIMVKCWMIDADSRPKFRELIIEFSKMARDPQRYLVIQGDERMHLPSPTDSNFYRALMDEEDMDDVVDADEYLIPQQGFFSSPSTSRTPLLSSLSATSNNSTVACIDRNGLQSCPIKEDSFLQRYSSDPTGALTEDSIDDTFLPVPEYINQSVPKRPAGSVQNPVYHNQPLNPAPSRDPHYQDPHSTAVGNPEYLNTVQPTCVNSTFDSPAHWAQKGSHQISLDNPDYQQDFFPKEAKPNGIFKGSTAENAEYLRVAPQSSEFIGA

GRK5 [4] = molecular target: T1, GRK5; experiment: Kinome panel, GRK5; type: biochemical; conditions: tested at 1 μM
Target sequence in this assay (P34947 whole entry, species assumed): as the sequence (P34947 whole entry) above

GRK6 = GRK6 (Homo sapiens, UniProt P43250); experiment: Kinome panel, GRK6; type: biochemical; conditions: tested at 1 μM
Sequence of GRK6 (P43250 whole entry, species assumed): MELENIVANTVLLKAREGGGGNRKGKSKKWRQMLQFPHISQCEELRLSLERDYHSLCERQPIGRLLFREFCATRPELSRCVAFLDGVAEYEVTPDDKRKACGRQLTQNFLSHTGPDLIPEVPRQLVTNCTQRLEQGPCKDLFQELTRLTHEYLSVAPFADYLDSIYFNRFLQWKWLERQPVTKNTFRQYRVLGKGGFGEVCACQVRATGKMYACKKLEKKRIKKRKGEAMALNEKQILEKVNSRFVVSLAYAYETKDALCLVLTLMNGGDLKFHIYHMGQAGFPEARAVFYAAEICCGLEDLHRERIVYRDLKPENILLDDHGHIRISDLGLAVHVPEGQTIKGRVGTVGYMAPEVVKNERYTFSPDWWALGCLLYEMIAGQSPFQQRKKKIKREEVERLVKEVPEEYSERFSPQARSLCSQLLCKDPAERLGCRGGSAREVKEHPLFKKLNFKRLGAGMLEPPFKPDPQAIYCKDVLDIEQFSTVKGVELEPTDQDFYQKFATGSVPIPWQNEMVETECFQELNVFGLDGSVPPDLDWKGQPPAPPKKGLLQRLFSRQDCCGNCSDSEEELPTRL

KIT = KIT (Homo sapiens, UniProt P10721); experiment: Kinome panel, KIT; type: biochemical; conditions: tested at 1 μM
Sequence of KIT (P10721 26-976, species assumed): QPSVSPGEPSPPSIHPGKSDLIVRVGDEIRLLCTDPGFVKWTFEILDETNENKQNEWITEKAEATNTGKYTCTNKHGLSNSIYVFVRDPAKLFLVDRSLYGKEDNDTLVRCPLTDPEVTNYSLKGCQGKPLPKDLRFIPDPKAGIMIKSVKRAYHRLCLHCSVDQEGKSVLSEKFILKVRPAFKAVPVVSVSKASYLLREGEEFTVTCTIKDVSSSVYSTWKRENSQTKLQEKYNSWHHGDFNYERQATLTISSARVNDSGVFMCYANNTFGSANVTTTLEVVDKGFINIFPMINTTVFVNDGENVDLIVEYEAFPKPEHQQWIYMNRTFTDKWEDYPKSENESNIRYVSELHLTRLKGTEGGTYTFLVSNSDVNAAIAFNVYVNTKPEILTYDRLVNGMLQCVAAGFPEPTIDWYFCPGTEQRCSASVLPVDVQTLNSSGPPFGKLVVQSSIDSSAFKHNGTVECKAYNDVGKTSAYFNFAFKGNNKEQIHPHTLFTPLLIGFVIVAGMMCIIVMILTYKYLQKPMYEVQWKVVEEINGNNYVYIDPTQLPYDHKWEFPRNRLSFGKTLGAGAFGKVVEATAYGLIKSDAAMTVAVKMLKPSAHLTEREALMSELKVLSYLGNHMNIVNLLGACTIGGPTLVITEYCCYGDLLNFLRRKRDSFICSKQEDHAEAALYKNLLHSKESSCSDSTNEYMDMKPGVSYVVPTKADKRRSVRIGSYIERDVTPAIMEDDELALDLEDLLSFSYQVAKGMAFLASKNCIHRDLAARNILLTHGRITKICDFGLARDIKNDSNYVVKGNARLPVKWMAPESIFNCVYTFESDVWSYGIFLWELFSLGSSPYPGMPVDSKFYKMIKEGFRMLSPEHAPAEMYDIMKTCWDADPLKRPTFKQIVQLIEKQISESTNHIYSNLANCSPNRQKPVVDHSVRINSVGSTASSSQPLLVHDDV

[5] = intact protein MS, 30 min incubation
[6] = intact protein MS, incubation time not stated
[7] = read-out: GRK2 IC50, Table 2, μM ± SD
[8] = read-out: GRK2 IC50, Table 1, μM ± SD

SMILES: Cc1[nH]c(/C=C2\C(=O)Nc3ccc(C(=O)NC(C)(C)c4ccccc4)cc32)c(C)c1NC(=O)CCl [Compound 9s, (Z)-3-((4-(2-chloroacetamido)-3,5-dimethyl-1H-pyrrol-2-yl)methylene)-2-oxo-N-(2-phenylpropan-2-yl)indoline-5-carboxamide]
- covalent labelling of GRK5 (GRK5 (Cys474); intact MS, overnight / 8 hours): completes labelling of GRK5
- IC50 (PKA; Table 2, μM ± SD): > 250 µM
- GRK2/GRK5 (GRK5 [1]; Table 2, ratio of IC50 values): 260

SMILES: Cc1[nH]c(/C=C2\C(=O)Nc3ccc(C(=O)N[C@H](C)c4ccc(F)cc4)cc32)c(C)c1NC(=O)CCl [Compound 9j, (R,Z)-3-((4-(2-chloroacetamido)-3,5-dimethyl-1H-pyrrol-2-yl)methylene)-N-(1-(4-fluorophenyl)ethyl)-2-oxoindoline-5-carboxamide]
- pH After Assay ([2]; solubility assay): 3
- solubility thermodynamic ([2]; thermodynamic from solid, n=1): 90.7 µM and 44.8 µg/mL
- covalent labelling of GRK5 (GRK5 (Cys474); [5]): form a covalent interaction with Cys474; also recorded: fully labels GRK5
- covalent labelling of GRK5 (GRK5 (Cys474); [6]): able to form a covalent interaction
- IC50 (bovine GRK2; [7]): 4.8 ± 3 µM
- increase of stability in HLMs [3]: 1.4 fold
- IC50 (PKA; Table 2, μM ± SD): > 250 µM

SMILES: Cc1[nH]c(/C=C2\C(=O)Nc3ccc(C(=O)N[C@@H](c4ccccc4)C(C)C)cc32)c(C)c1NC(=O)CCl [Compound 9r, (R,Z)-3-((4-(2-chloroacetamido)-3,5-dimethyl-1H-pyrrol-2-yl)methylene)-N-(2-methyl-1-phenylpropyl)-2-oxoindoline-5-carboxamide]
- covalent labelling of GRK5 (GRK5 (Cys474); intact MS, overnight / 8 hours): partial labelling
- IC50 (bovine GRK2): 190 ± 70 µM
- GRK2/GRK5 (GRK5 [1]; Table 2, ratio of IC50 values): 15

SMILES: CC#CC(=O)Nc1c(C)[nH]c(/C=C2\C(=O)Nc3ccc(C(=O)N[C@H](C)c4ccccc4)cc32)c1C [Compound 9a, (R,Z)-3-((4-(but-2-ynamido)-3,5-dimethyl-1H-pyrrol-2-yl)methylene)-2-oxo-N-(1-phenylethyl)indoline-5-carboxamide]
- covalent labelling of GRK5 (GRK5 (Cys474); [6]): did not show any covalent engagement
- IC50 (bovine GRK2; [8]): 150 ± 30 µM
- potency / affinity against GRK5 in words (GRK5 [1]): low μM potency
- GRK2/GRK5 (GRK5 [1]; Table 1, ratio of IC50 values): 61
- IC50 (GRK5 [1]; Table 1, μM ± SD): 2.5 ± 0.8 µM

SMILES: Cc1[nH]c(/C=C2\C(=O)Nc3ccc(C(=O)NCc4ccccc4)cc32)c(C)c1NC(=O)CCl [Compound 9q, (Z)—N-benzyl-3-((4-(2-chloroacetamido)-3,5-dimethyl-1H-pyrrol-2-yl)methylene)-2-oxoindoline-5-carboxamide]
- covalent labelling of GRK5 (GRK5 (Cys474); intact MS, overnight / 8 hours): partial labelling
- IC50 (bovine GRK2; [7]): 13 ± 3 µM
- IC50 (PKA; Table 2, μM ± SD): > 250 µM

SMILES: Cc1[nH]c(/C=C2\C(=O)Nc3ccc(C(=O)N[C@H](C)c4ccccc4)cc32)c(C)c1NC(=O)CBr [Compound 9g, (R,Z)-3-((4-(2-bromoacetamido)-3,5-dimethyl-1H-pyrrol-2-yl)methylene)-2-oxo-N-(1-phenylethyl)indoline-5-carboxamide]
- kinome-wide selectivity (kinome): far more selective across the kinome
- inhibition of FGFR1/2 (FGFR1/2): 94-98%
- inhibition of PDGFR (PDGFR): 99%
- inhibition at 1 µM (EGFR): 17%
- inhibition at 1 µM (GRK5 [4]): 93%
- fraction of GRK5 labelled (GRK5 (Cys474); [5]): 50%
- covalent labelling of GRK5 (GRK5 (Cys474); [6]): able to label GRK5 at Cys474; also recorded: able to form a covalent interaction
- IC50 (bovine GRK2; [8]): 12 ± 20 µM
- inhibition at 1 µM (GRK6): 97%
- IC50 (PKA; Table 1, μM ± SD): > 250 µM
- selectivity for GRK5 over GRK2 (GRK5 [1]): 1400 fold
- GRK2/GRK5 (GRK5 [1]; Table 1, ratio of IC50 values): 1400
- IC50 (GRK5 [1]): 0.0086 µM
- inhibition at 1 µM (KIT): 84%

SMILES: C#CCNC(=O)c1c(C)[nH]c(/C=C2\C(=O)Nc3ccc(C(=O)N[C@H](C)c4ccccc4)cc32)c1C [Compound 5c, (R,Z)-3-((3,5-dimethyl-4-(prop-2-yn-1-ylcarbamoyl)-1H-pyrrol-2-yl)methylene)-2-oxo-N-(1-phenylethyl)indoline-5-carboxamide]
- inhibition of FGFR1/2 (FGFR1/2): 92-98%
- inhibition of PDGFR (PDGFR): 99-100%
- inhibition at 1 µM (EGFR): 17%
- IC50 (bovine GRK2; [8]): 44 ± 40 µM
- inhibition at 1 µM (GRK6): 94%
